Results on 14 molecules are retold here after ChEMBL document CHEMBL6074706, “Inhibition of the Binding of Interleukin 17A with Interleukin 17A Receptor as a Treatment for Immune System and Inflammation Disorders, Cancer, and Neurodegenerative Diseases” (ACS Med Chem Lett, 2024).

The nature of this test: Inhibition of human IL-17A binding to recombinant human Fc-tagged IL-17RA preincubated with IL-17A for 30 mins followed by receptor addition and measured after 90 mins by AlphaLISA plate reader analysis.

`Cn1nccc1C(=O)N[C@H](C(=O)Nc1cc(OC2CCNC2=O)ccn1)[C@H]1CC[C@H](C)CC1` (some centres undefined): the IC50 came to 8970 nM.
To `CCc1nonc1C(=O)NC(C(=O)Nc1cc([C@@H](COC)N2C[C@@H](C(F)(F)F)NC2=O)ccn1)C1CCC(F)CC1` (some centres undefined) belongs 17 nM.
Next, `CCc1ncoc1C(=O)N[C@H](C(=O)Nc1cc(C[C@H]2C[C@@H](C(F)(F)F)NC2=O)ccn1)C1CCC(F)(F)CC1`: 465 nM; `CCC[C@H](c1ccnc(NC(=O)[C@@H](NC(=O)c2nocc2CC)C2CCC(F)(F)CC2)c1)N1C[C@@H](C(F)(F)F)NC1=O`: 18 nM; `COCC(c1ccnc(NC(=O)[C@@H](NC(=O)c2nonc2C2CC2)[C@H]2CC[C@H](C)CC2)c1)N1C[C@@H](C(F)(F)F)NC1=O` (some centres undefined): 11 nM.
To `CC[C@H](c1ccnc(NC(=O)[C@H](NC(=O)c2ccnn2C)[C@H]2CC[C@H](C)CC2)c1)N1C[C@@H](C(F)(F)F)NC1=O` belongs 6 nM.
Regarding `CCc1nonc1C(=O)N[C@H](C(=O)Nc1cc([C@@H](COC)N2CC(F)(F)CNC2=O)ccn1)C1CCC(F)(F)CC1`, the IC50 is 19 nM.
Next, `CCc1nonc1C(=O)N[C@H](C(=O)Nc1cc(C(COC)N2C[C@@H](C(F)(F)F)NC2=O)ccn1)[C@H]1CC[C@H](C)CC1` (some centres undefined): 4 nM.
Next, `CC1(C)CN(Cc2ccnc(NC(=O)[C@@H](NC(=O)c3nonc3C3CC3)[C@H]3CC[C@H](C)CC3)c2)C(=O)N1`: 105 nM; `COCC(NC(=O)CCC(F)(F)F)c1ccnc(NC(=O)[C@@H](NC(=O)c2ccnn2C(C)C)C2CCC(F)(F)CC2)c1` (some centres undefined): 1360 nM; `CC(C)n1nccc1C(=O)N[C@H](C(=O)Nc1cc(O[C@@H]2C[C@@H](C(F)(F)F)NC2=O)ccn1)[C@H]1CC[C@H](C)CC1`: 1210 nM.
Next, `CC(C)(C)OC(=O)N[C@H](C(=O)Nc1cc(CN2C[C@@H](C(F)(F)F)NC2=O)ccn1)[C@H]1CC[C@H](C)CC1`: 148 nM; `CCc1nocc1C(=O)N[C@H](C(=O)Nc1cc([C@@H](COC)N2C[C@@H](C(F)(F)F)NC2=O)ccn1)[C@H]1CCCC(F)(F)C1`: 51 nM; `C[C@H]1CC[C@H]([C@H](NC(=O)c2nonc2C2CC2)C(=O)Nc2cc(CN3C[C@@H](C(F)(F)F)NC3=O)ccn2)CC1`: 25 nM.
